Among the data in ChEMBL document CHEMBL4419166, “Use of small molecule inhibitors to klf10 for modulation of t regulatory cells and cancer immunotherapy” (2017) are Activity and inhibition values, retold here.

The target in experiment [1] is T1, Krueppel-like factor 10 (Mus musculus) (UniProt O89091).
T1 sequence (whole entry): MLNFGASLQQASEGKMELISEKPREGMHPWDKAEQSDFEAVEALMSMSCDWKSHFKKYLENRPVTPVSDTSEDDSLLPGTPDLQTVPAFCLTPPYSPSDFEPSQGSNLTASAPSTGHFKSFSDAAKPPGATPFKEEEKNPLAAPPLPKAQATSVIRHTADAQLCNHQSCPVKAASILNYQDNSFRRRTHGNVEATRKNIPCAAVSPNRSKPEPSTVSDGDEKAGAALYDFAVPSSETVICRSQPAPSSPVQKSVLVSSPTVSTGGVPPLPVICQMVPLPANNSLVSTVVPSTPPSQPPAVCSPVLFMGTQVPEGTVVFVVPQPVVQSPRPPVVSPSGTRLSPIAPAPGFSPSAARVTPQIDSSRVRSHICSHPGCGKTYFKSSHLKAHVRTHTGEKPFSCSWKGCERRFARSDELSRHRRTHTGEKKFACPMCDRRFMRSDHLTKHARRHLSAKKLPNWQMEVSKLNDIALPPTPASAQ
The experiment in a line: Inhibition of KLF10 in mouse CD4+CD25- T cells assessed as reduction in checkpoint markers on iTregs by measuring PD1 expression level. Format: cell-based. Also noted: scale not given: the % may be the effect or the level left.

For experiment [2], the system named is Mus musculus. The experiment in a line: Suppression of TGF-beta1 expression in CD4+ T cells isolated from mouse B16 cells implanted mouse at 25 to 100 mg/kg, ip. Format: functional, organism-based.
Experiment [3] concerns Mus musculus. Nature of the experiment: Antitumor activity against mouse TRAMP-C2 cells implanted in mouse assessed as reduction tumor volume at 200 mg/kg, ip dosed on day 3 to 7. Format: functional, organism-based.
Experiment [4] addresses T1, Krueppel-like factor 10 (Mus musculus). Nature of the experiment: Inhibition of KLF10 in mouse CD4+CD25- T cells assessed as reduction in Foxp3 mRNA expression incubated for 5 days by real time qPCR analysis relative to control. Format: cell-based. (In qPCR the cycle at which signal appears reflects the starting amount.)
In experiment [5] the target is Krueppel-like factor 1 (Homo sapiens) (UniProt Q13351). Nature of the experiment: Inhibition of GST-tagged KLF1 (unknown origin) binding to double-stranded DNA at 40 uM by electromobility gel shift assay relative to control. On the technique in general: A gel shift assay detects complexes by their altered migration in electrophoresis.
Experiment [6] has as its target T1, Krueppel-like factor 10 (Mus musculus). The experiment in a line: Inhibition of KLF10 in mouse CD4+CD25- T cells assessed as reduction in checkpoint markers on iTregs by measuring CTLA4 expression level. Format: cell-based. The arrangement: scale not given: the % may be the effect or the level left.
Experiment [7] has the same target. Nature of the experiment: Inhibition of KLF10 in mouse CD4+CD25- T cells assessed as reduction in checkpoint markers on iTregs by measuring PDL1 expression level. Format: cell-based. The arrangement: scale not given: the % may be the effect or the level left.
Experiment [8] concerns the target Krueppel-like factor 1 (Homo sapiens) (UniProt Q13351). The experiment in a line: Inhibition of GST-tagged KLF1 (unknown origin) binding to double-stranded DNA at 8 uM by electromobility gel shift assay relative to control.
Experiment [9] has as its system B16. The experiment in a line: Antitumor activity against mouse B16cells implanted in mouse assessed as reduction tumor volume at 20 mg/kg dosed via local injection on day 0 and measured from day 4 to day 13. Format: functional, organism-based.
For experiment [10], the system named is B16. Nature of the experiment: Antitumor activity against mouse B16 cells implanted in mouse assessed as reduction tumor volume at 200 mg/kg, ip dosed on day 3 to 7. Format: functional, organism-based.
In experiment [11] the target is T1, Krueppel-like factor 10 (Mus musculus). The experiment in a line: Inhibition of KLF10 in mouse CD4+CD25- T cells assessed as reduction in PD1 mRNA expression at 50 uM incubated for 5 days by real time qPCR analysis relative to control. Format: cell-based.
For experiment [12] the target is unchanged. The experiment in a line: Inhibition of KLF10 in mouse CD4+CD25- T cells assessed as reduction in Foxp3 mRNA expression at 50 uM incubated for 5 days by real time qPCR analysis relative to control. Format: cell-based.

Each structure is given as a SMILES string. The source made the active and inactive calls. The rule behind the calls is not given here.

In general, inhibition refers to the drop in the measured response relative to a control, in per cent.

Sequence of Krueppel-like factor 1 (Homo sapiens) (Q13351 whole entry): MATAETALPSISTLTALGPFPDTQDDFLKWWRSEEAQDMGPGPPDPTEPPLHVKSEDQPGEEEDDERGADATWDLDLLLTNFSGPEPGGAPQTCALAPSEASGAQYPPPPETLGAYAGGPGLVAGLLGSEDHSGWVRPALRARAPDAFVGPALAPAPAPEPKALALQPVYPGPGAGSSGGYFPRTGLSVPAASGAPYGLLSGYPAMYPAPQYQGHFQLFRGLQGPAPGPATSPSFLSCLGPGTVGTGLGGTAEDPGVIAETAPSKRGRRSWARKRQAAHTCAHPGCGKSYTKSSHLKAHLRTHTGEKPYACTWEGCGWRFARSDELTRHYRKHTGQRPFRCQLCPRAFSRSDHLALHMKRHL

With `Cc1ccc(OCC(=O)c2cc(C)c(O)cc2O)cc1`, the Activity in [1] turned out to be 49.4%; in experiment [6], 88.7%; in experiment [7], 43.7%. In addition, the inhibition result (in the experiment on Mus musculus [2]; with Mus musculus [3]; in [4]; in the experiment on B16 [10]) was “Active” in each case. Also, the inhibition result in experiment [5] and in experiment [8] was “inactive” throughout. The outcome in the experiment on B16 [9] was Active.

Consider `COc1ccc(C(=O)COC(=O)c2cc(C)ccc2O)cc1`, for which the Activity in experiment [1] is 47.6%; in [6] it was 92%; in experiment [7], 53.1%. Further, the inhibition entry in [4] and in experiment [11] was “Active” throughout. Moreover, the inhibition result in [5] and in experiment [8] was “inactive” in each case. For the same compound, the inhibition in experiment [12] was found to be 82.5%.
